Laboratory results: ChEMBL document CHEMBL5241120, “Insights into the medicinal chemistry of heterocycles integrated with a pyrazolo[1,5-a]pyrimidine scaffold” (RSC Med Chem, 2022)
Values after ≈ are worked out from the molar mass of the structure shown.

Key:
Aspergillus fumigatus [1] = experiment: Antifungal activity against Aspergillus fumigatus; format: functional
Aspergillus flavus = experiment: Antifungal activity against Aspergillus flavus assessed as zone of inhibition at 5 mg/ml; format: functional; conditions: read-out: IZ
Enterococcus faecalis = experiment: Antibacterial activity against Enterococcus faecalis assessed as zone of inhibition at 5 mg/ml; format: functional; conditions: read-out: IZ
Candida albicans = experiment: Antifungal activity against Candida albicans assessed as zone of inhibition at 5 mg/ml; format: functional; conditions: read-out: IZ
Aspergillus fumigatus [2] = experiment: Antifungal activity against Aspergillus fumigatus assessed as zone of inhibition at 5 mg/ml; format: functional; conditions: read-out: IZ
Bacillus subtilis [3] = experiment: Antibacterial activity against Bacillus subtilis assessed as zone of inhibition at 5 mg/ml; format: functional; conditions: read-out: IZ
MCF7 = experiment: Cytotoxicity against human MCF7 cells by MTT assay; format: functional, cell-based
Escherichia coli [4] = experiment: Antibacterial activity against Escherichia coli assessed as zone of inhibition at 5 mg/ml; format: functional; conditions: read-out: IZ
HepG2 = experiment: Cytotoxicity against human HepG2 cells by MTT assay; format: functional, cell-based
Proteus vulgaris = experiment: Antibacterial activity against Proteus vulgaris assessed as zone of inhibition at 5 mg/ml; format: functional; conditions: read-out: IZ
Staphylococcus aureus [5] = experiment: Antibacterial activity against Staphylococcus aureus assessed as zone of inhibition at 5 mg/ml; format: functional; conditions: read-out: IZ
Streptococcus mutans = experiment: Antibacterial activity against Streptococcus mutans assessed as zone of inhibition at 5 mg/ml; format: functional; conditions: read-out: IZ
HCT-116 = experiment: Cytotoxicity against human HCT-116 cells by MTT assay; format: functional, cell-based
Geotrichum candidum = experiment: Antifungal activity against Geotrichum candidum assessed as zone of inhibition; format: functional
Klebsiella pneumoniae [6] = experiment: Antibacterial activity against Klebsiella pneumoniae assessed as zone of inhibition; format: functional
Escherichia coli [7] = experiment: Antibacterial activity against Escherichia coli assessed as zone of inhibition; format: functional
[8] = test system: Staphylococcus epidermidis; experiment: Antibacterial activity against Staphylococcus epidermidis assessed as zone of inhibition; format: functional
Salmonella typhimurium = experiment: Antibacterial activity against Salmonella typhimurium assessed as zone of inhibition; format: functional, Salmonella enterica subsp. enterica serovar Typhimurium
Aspergillus clavatus = experiment: Antifungal activity against Aspergillus clavatus assessed as zone of inhibition; format: functional
Bacillus subtilis [9] = experiment: Antibacterial activity against Bacillus subtilis assessed as zone of inhibition; format: functional
Staphylococcus aureus [10] = experiment: Antibacterial activity against Staphylococcus aureus; format: functional
Escherichia coli [11] = experiment: Antibacterial activity against Escherichia coli; format: functional
Staphylococcus aureus [12] = experiment: Antibacterial activity against Staphylococcus aureus assessed as zone of inhibition; format: functional
Fusarium oxysporum = experiment: Antifungal activity against Fusarium oxysporum; format: functional
Pseudomonas aeruginosa [13] = experiment: Antibacterial activity against Pseudomonas aeruginosa assessed as zone of inhibition; format: functional
Bacillus subtilis [14] = experiment: Antibacterial activity against Bacillus subtilis; format: functional
Pseudomonas aeruginosa [15] = experiment: Antibacterial activity against Pseudomonas aeruginosa; format: functional
Penicillium chrysogenum = experiment: Antifungal activity against Penicillium chrysogenum; format: functional
Alternaria solani = experiment: Antifungal activity against Alternaria solani assessed as inhibition of fungal growth at 50 ug/ml; format: functional; parameters: scale not given: the % may be the effect or the level left; conditions: dose 50 µg/ml
[16] = test system: Brassica rapa subsp. oleifera; experiment: Antifungal activity against Brassica campestris assessed as inhibition of fungal growth at 100 ug/ml by cup plate diffusion method; format: functional; parameters: scale not given: the % may be the effect or the level left; conditions: dose 100 µg/ml
Phomopsis asparagi = experiment: Antifungal activity against Phoma asparagi assessed as inhibition of fungal growth at 50 ug/ml; format: functional; parameters: scale not given: the % may be the effect or the level left; conditions: dose 50 µg/ml
Mycosphaerella arachidis = experiment: Antifungal activity against Cercospora arachidicola assessed as inhibition of fungal growth at 50 ug/ml; format: functional; parameters: scale not given: the % may be the effect or the level left; conditions: dose 50 µg/ml
Fusarium graminearum = experiment: Antifungal activity against Gibberrella-zeave assessed as inhibition of fungal growth at 50 ug/ml; format: functional; parameters: scale not given: the % may be the effect or the level left; conditions: dose 50 µg/ml
[17] = test system: Brassica rapa subsp. oleifera; experiment: Antifungal activity against Brassica campestris assessed as inhibition of fungal growth at 10 ug/ml by cup plate diffusion method; format: functional; parameters: scale not given: the % may be the effect or the level left; conditions: dose 10 µg/ml
Candida tropicalis = experiment: Antifungal activity against Candida tropicalis assessed as zone of inhibition; format: functional
Mus musculus [18] = experiment: Anxiolytic activity in mouse assessed as transfer number at 100 mg/kg, po; format: functional
Mus musculus [19] = experiment: Anxiolytic activity in mouse assessed as time spent in light at 100 mg/kg, po; format: functional
A549 = experiment: Cytotoxicity against human A549 cells by MTT assay; format: functional, cell-based
COLO 205 = experiment: Cytotoxicity against human COLO 205 cells by MTT assay; format: functional, cell-based
SiHa = experiment: Cytotoxicity against human SiHa cells by MTT assay; format: functional, cell-based
[20] = molecular target: Cyclin-dependent kinase 1 (Homo sapiens, UniProt P06493); experiment: Inhibition of CDK1 (unknown origin)
Cyclin-dependent kinase 1, sequence (P06493 whole entry): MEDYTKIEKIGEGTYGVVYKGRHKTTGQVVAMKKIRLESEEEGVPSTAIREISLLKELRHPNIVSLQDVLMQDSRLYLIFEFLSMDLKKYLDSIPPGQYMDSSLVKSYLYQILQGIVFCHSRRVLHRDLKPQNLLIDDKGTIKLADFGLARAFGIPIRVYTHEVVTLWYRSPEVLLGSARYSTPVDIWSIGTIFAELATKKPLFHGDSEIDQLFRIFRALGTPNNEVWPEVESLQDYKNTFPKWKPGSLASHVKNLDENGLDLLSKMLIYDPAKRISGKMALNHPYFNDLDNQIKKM

[21] = Cytotoxicity against human WI-38 cells by MTT assay; format: toxicity, cell-based
[22] = test system: Panel NCI-60 (60 carcinoma cell lines); experiment: Cytotoxicity against human Panel NCI-60 (60 carcinoma cell lines); format: functional; parameters: concentration or dose not given beside the values
Klebsiella pneumoniae [23] = experiment: Antibacterial activity against Klebsiella pneumoniae strain 13 assessed as bacterial inhibition at 0.5 mg/ml after 3 hrs; format: functional; parameters: scale not given: the % may be the effect or the level left
Mus musculus [24] = experiment: Anxiolytic activity in mouse assessed as time spent in light at 3 mg/kg, po; format: functional
Mus musculus [25] = experiment: Anxiolytic activity in mouse assessed as transfer number at 1 mg/kg, po; format: functional
Mus musculus [26] = experiment: Anxiolytic activity in mouse assessed as time spent in light at 10 mg/kg, po; format: functional
Mus musculus [27] = experiment: Anxiolytic activity in mouse assessed as transfer number at 3 mg/kg, po; format: functional
Mus musculus [28] = experiment: Anxiolytic activity in mouse assessed as transfer number at 10 mg/kg, po; format: functional
Mus musculus [29] = experiment: Anxiolytic activity in mouse assessed as time spent in light at 1 mg/kg, po; format: functional
Mus musculus [30] = experiment: Anxiolytic activity in mouse assessed as time spent in light at 30 mg/kg, po; format: functional
[31] = molecular target: Gamma-aminobutyric acid receptor subunit alpha-1 (Homo sapiens, UniProt P14867); experiment: Binding affinity to GABAA alpha1 (unknown origin)
Gamma-aminobutyric acid receptor subunit alpha-1, sequence (P14867 whole entry): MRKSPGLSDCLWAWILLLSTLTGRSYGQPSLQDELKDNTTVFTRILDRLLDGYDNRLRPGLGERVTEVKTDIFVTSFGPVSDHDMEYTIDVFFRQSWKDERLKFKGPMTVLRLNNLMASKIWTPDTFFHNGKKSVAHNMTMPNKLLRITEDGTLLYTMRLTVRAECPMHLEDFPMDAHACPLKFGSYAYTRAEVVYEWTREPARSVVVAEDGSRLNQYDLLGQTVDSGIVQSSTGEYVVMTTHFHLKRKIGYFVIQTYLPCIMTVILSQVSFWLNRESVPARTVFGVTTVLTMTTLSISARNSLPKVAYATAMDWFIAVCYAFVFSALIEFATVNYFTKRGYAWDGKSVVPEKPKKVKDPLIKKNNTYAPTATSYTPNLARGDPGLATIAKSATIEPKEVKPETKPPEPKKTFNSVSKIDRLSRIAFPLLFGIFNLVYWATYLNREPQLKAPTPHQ

Mus musculus [32] = experiment: Anxiolytic activity in mouse assessed as transfer number at 30 mg/kg, po; format: functional

Question: With `COc1ccc(Nc2nn3c(N)c(C#N)c(-c4ccccc4)nc3c2C(N)=O)cc1` as the molecule, how does the MIC (Aspergillus fumigatus [1]) read?
Answer: 15.6 µg/mL (≈ 39.1 µM)

Question: With `Cc1cc(C)nc(NS(=O)(=O)c2ccc(/N=N/c3c(N)nc4c(/N=N/c5ccc(C(F)(F)F)cc5)c(N)nn4c3N)cc2)n1` as the molecule, how does the zone of inhibition at 5000 µg/mL (Aspergillus flavus) read?
Answer: 13 mm

Question: And the zone of inhibition at 5000 µg/mL (Enterococcus faecalis)?
Answer: 25 mm

Question: What about the zone of inhibition at 5000 µg/mL (Candida albicans) of the same molecule?
Answer: 13 mm

Question: And the zone of inhibition at 5000 µg/mL (Aspergillus fumigatus [2])?
Answer: 13 mm

Question: And the zone of inhibition at 5000 µg/mL (Bacillus subtilis [3])?
Answer: 13 mm

Question: What about the IC50 (MCF7) of the same molecule?
Answer: 4.5 µg/mL

Question: And the zone of inhibition at 5000 µg/mL (Escherichia coli [4])?
Answer: 13 mm

Question: And the IC50 (HepG2)?
Answer: 3.9 µg/mL (≈ 6.23 µM)

Question: And the zone of inhibition at 5000 µg/mL (Proteus vulgaris)?
Answer: 40 mm

Question: What about the zone of inhibition at 5000 µg/mL (Staphylococcus aureus [5]) of the same molecule?
Answer: 13 mm

Question: What about the zone of inhibition at 5000 µg/mL (Streptococcus mutans) of the same molecule?
Answer: 13 mm

Question: And the IC50 (HCT-116)?
Answer: 2.7 µg/mL

Question: Which “inhibition zone (IZ)” value (Geotrichum candidum) does the source give for `Nc1nn2c(-c3ccc(S(=O)(=O)c4ccccc4)cc3)ccnc2c1/N=N/c1ccccc1Cl` here?
Answer: 25.2 mm

Question: What about the “inhibition zone (IZ)” value (Klebsiella pneumoniae [6]) of the same molecule?
Answer: 26.6 mm

Question: And the “inhibition zone (IZ)” value (Escherichia coli [7])?
Answer: 25.7 mm

Question: And the “inhibition zone (IZ)” value [8]?
Answer: 22.6 mm

Question: And the “inhibition zone (IZ)” value (Salmonella typhimurium)?
Answer: 26.2 mm

Question: Which results are given for `Cc1nc2c(c(C)nc3c(C#N)cnn32)c2c1CCO2`?
Answer: inhibition zone (IZ) (Aspergillus clavatus): 17.7 mm; inhibition zone (IZ) (Escherichia coli [7]): 16.4 mm; inhibition zone (IZ) (Bacillus subtilis [9]): 14.1 mm

Question: For `COc1ccc(Nc2nn3c(-c4ccccc4)cc(-c4ccccc4)nc3c2C(N)=O)cc1`, which MIC (Staphylococcus aureus [10]) is on record?
Answer: 7.81 µg/mL (≈ 17.9 µM)

Question: What about the MIC (Escherichia coli [11]) of the same molecule?
Answer: 3.9 µg/mL (≈ 8.96 µM)

Question: What about the “inhibition zone (IZ)” value (Staphylococcus aureus [12]) of the same molecule?
Answer: 9 mm

Question: What about the MIC (Fusarium oxysporum) of the same molecule?
Answer: 7.81 µg/mL (≈ 17.9 µM)

Question: And the “inhibition zone (IZ)” value (Pseudomonas aeruginosa [13])?
Answer: 10 mm

Question: And the MIC (Bacillus subtilis [14])?
Answer: 3.9 µg/mL (≈ 8.96 µM)

Question: What about the “inhibition zone (IZ)” value (Escherichia coli [7]) of the same molecule?
Answer: 13 mm

Question: And the MIC (Pseudomonas aeruginosa [15])?
Answer: 15.6 µg/mL (≈ 35.9 µM)

Question: What about the “inhibition zone (IZ)” value (Bacillus subtilis [9]) of the same molecule?
Answer: 12 mm

Question: What about the MIC (Penicillium chrysogenum) of the same molecule?
Answer: 15.6 µg/mL (≈ 35.9 µM)

Question: What does the source list for `Cc1ccn2ncc(C#N)c2n1`?
Answer: Activity (Alternaria solani): 45.1%; Activity [16]: 65.8%; Activity (Phomopsis asparagi): 28.7%; Activity (Mycosphaerella arachidis): 39.6%; Activity (Fusarium graminearum): 36.4%; Activity [17]: 40.3%

Question: With `Cc1cc(NN2C(=O)c3ccccc3C2=O)n2ncc(C#N)c2n1` as the molecule, how does the “inhibition zone (IZ)” value (Candida tropicalis) read?
Answer: 17.4 mm

Question: For `CCOC(=O)c1ncn2c1CN(C)C(=O)c1cc(F)ccc1-2` [FLUMAZENIL], which Activity (Mus musculus [18]) is on record?
Answer: 12.8

Question: What about the Activity (Mus musculus [19]) of the same molecule?
Answer: 120.08%

Question: Which IC50 (A549) does the source give for `COc1ccc(-c2cc(-c3nn4cc(-c5ccncc5)cnc4c3S(=O)(=O)c3cc(OC)c(OC)c(OC)c3)on2)cc1` here?
Answer: 10 nM

Question: What about the IC50 (COLO 205) of the same molecule?
Answer: 100 nM

Question: What about the IC50 (MCF7) of the same molecule?
Answer: 10 nM

Question: And the IC50 (SiHa)?
Answer: 180 nM

Question: What does the source list for `COc1ccc(Nc2nn3c(-c4ccccc4)cc(-c4ccccc4)nc3c2C(N)=O)c(OC)c1`?
Answer: IC50 [20]: 161 nM; IC50 [21]: 17700 nM; Activity [22]: 48.5%; IC50 (HCT-116): 6280 nM

Question: With `CCSc1nn2c3c(c(C)nc2c1C#N)Nc1ccccc1C(=O)N3C1CCCCC1` as the molecule, how does the Activity (Klebsiella pneumoniae [23]) read?
Answer: 100%

Question: With `O=c1c(Cc2ccccc2)c[nH]c2c(-c3ccccn3)cnn12` as the molecule, how does the Activity (Mus musculus [24]) read?
Answer: 145.2%

Question: What about the Activity (Mus musculus [25]) of the same molecule?
Answer: 15

Question: And the Activity (Mus musculus [26])?
Answer: 165.4%

Question: And the Activity (Mus musculus [27])?
Answer: 21.3

Question: What about the Activity (Mus musculus [28]) of the same molecule?
Answer: 23.9

Question: And the Activity (Mus musculus [29])?
Answer: 113.9%

Question: And the Activity (Mus musculus [30])?
Answer: 164.4%

Question: And the Ki [31]?
Answer: 183 nM

Question: And the Activity (Mus musculus [32])?
Answer: 28.9
